Assays:
Assay in all cases: relative viability (nuclei count vs DMSO), 5 days (fraction); higher = more cells survive
Alpelisib + Olaparib = compound: Cc1nc(NC(=O)N2CCC[C@H]2C(N)=O)sc1-c1ccnc(C(C)(C)C(F)(F)F)c1 [Alpelisib] + O=C(c1cc(Cc2n[nH]c(=O)c3ccccc23)ccc1F)N1CCN(C(=O)C2CC2)CC1 [Olaparib] (partner 8 µM)
Summary of the method: (§1)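 Values are medians from duplicate plates. Each reflects relative viability, defined as the nuclei count of treated wells over that of vehicle wells. Lung cancer cell lines in 1536-well plates were pin-tool dosed one day after seeding with one drug alone or with a fixed anchor-drug dose plus five library-drug doses (not always all listed) in √10 steps, then fixed, stained and imaged at 4× after 5 days.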

Vemurafenib + Bortezomib = compound: CCCS(=O)(=O)Nc1ccc(F)c(C(=O)c2c[nH]c3ncc(-c4ccc(Cl)cc4)cc23)c1F [Vemurafenib] + CC(C)C[C@H](NC(=O)[C@H](Cc1ccccc1)NC(=O)c1cnccn1)B(O)O [Bortezomib] (partner 0.002 µM)
Summary of the method: as §1

Alpelisib + Pemetrexed = compound: Cc1nc(NC(=O)N2CCC[C@H]2C(N)=O)sc1-c1ccnc(C(C)(C)C(F)(F)F)c1 [Alpelisib] + Nc1nc2[nH]cc(CCc3ccc(C(=O)N[C@@H](CCC(=O)O)C(=O)O)cc3)c2c(=O)[nH]1 [Pemetrexed] (partner 0.2 µM)
Summary of the method: as §1

Vemurafenib + Vorinostat = compound: CCCS(=O)(=O)Nc1ccc(F)c(C(=O)c2c[nH]c3ncc(-c4ccc(Cl)cc4)cc23)c1F [Vemurafenib] + O=C(CCCCCCC(=O)Nc1ccccc1)NO [Vorinostat] (partner 1 µM)
Summary of the method: as §1

Cell Line | relative viability (Alpelisib + Olaparib; first compound 0.04 µM) | relative viability (Alpelisib + Olaparib; first compound 0.1265 µM) | relative viability (Alpelisib + Olaparib; first compound 0.4 µM) | relative viability (Alpelisib + Olaparib; first compound 1.265 µM) | relative viability (Alpelisib + Olaparib; first compound 4 µM) | relative viability (Vemurafenib + Bortezomib; first compound 0.03162 µM) | relative viability (Vemurafenib + Bortezomib; first compound 0.1 µM) | relative viability (Vemurafenib + Bortezomib; first compound 0.3162 µM) | relative viability (Vemurafenib + Bortezomib; first compound 1 µM) | relative viability (Alpelisib + Pemetrexed; first compound 0.04 µM) | relative viability (Alpelisib + Pemetrexed; first compound 0.1265 µM) | relative viability (Alpelisib + Pemetrexed; first compound 0.4 µM) | relative viability (Alpelisib + Pemetrexed; first compound 1.265 µM) | relative viability (Alpelisib + Pemetrexed; first compound 4 µM) | relative viability (Vemurafenib + Vorinostat; first compound 0.03162 µM) | relative viability (Vemurafenib + Vorinostat; first compound 0.1 µM) | relative viability (Vemurafenib + Vorinostat; first compound 1 µM) | relative viability (Vemurafenib + Vorinostat; first compound 0.3162 µM)
A-427 | 0.721 | 0.724 | 0.762 | 0.609 | 0.613 | 0.885 | 0.998 | 0.962 | 1.03 | 0.89 | 0.87 | 0.988 | 0.885 | 0.845 | 0.807 | 0.819 | 0.875 | 
NCI-H1703 | 0.415 | 0.335 | 0.296 | 0.204 | 0.15 | 0.527 | 0.438 | 0.32 | 0.257 |  |  |  |  |  |  |  |  | 
HCC-366 | 0.338 | 0.287 | 0.374 | 0.217 | 0.16 | 1 | 1.05 |  | 1.06 | 0.175 | 0.232 | 0.296 | 0.342 | 0.254 | 0.271 | 0.38 | 0.306 | 
NCI-H1299 | 1 | 0.96 | 1.01 | 0.896 | 0.966 | 0.998 | 0.976 | 0.918 | 1 |  |  |  |  |  |  |  |  | 
LK-2 | 0.636 | 0.464 | 0.74 | 0.301 | 0.328 |  |  |  |  | 0.247 | 0.252 | 0.213 | 0.209 | 0.199 | 0.261 | 0.271 | 0.247 | 0.3
IA-LM | 1.03 | 0.857 | 0.776 | 0.723 | 0.667 | 0.802 | 0.764 | 0.822 | 0.598 |  |  |  |  |  | 0.975 | 0.914 | 0.966 | 0.946
NCI-H522 | 0.795 | 0.693 | 0.529 | 0.661 | 0.491 |  |  |  |  | 1.07 | 1.03 | 1.1 | 0.946 | 0.72 | 0.901 | 0.846 | 0.714 | 0.835
NCI-H2342 | 0.448 | 0.429 | 0.405 | 0.367 | 0.266 |  |  |  |  | 0.843 | 0.77 | 0.694 | 0.686 | 0.447 | 0.623 | 0.785 | 0.787 | 0.755
A549 | 0.301 |  | 0.434 | 0.3 | 0.23 |  |  |  |  |  |  |  |  |  |  |  |  | 
NCI-H1792 | 0.48 | 0.528 | 0.68 | 0.36 | 0.205 | 0.875 | 0.951 | 0.721 | 0.957 | 0.897 | 0.479 | 0.992 | 0.688 | 0.462 |  |  |  | 
EBC-1 | 0.682 | 0.74 | 0.655 | 0.636 | 0.587 | 0.453 | 0.553 | 0.622 | 0.741 |  |  |  |  |  |  |  |  | 
NCI-H2170 | 0.519 | 0.586 | 0.596 | 0.481 | 0.466 |  |  |  |  | 0.277 | 0.23 | 0.281 | 0.29 | 0.265 | 0.733 |  | 0.754 | 0.737
ABC-1 | 0.775 | 0.596 | 1.01 | 0.885 | 0.804 | 0.268 | 0.302 | 0.267 | 0.287 |  |  |  |  |  | 1.06 | 0.972 | 1.45 | 0.831
NCI-H1563 |  |  |  |  |  | 0.855 | 0.658 | 0.762 | 0.846 | 0.857 | 0.579 | 0.662 | 0.622 | 0.567 |  |  |  | 
NCI-H1395 | 0.45 | 0.511 | 0.472 | 0.408 | 0.451 |  |  |  |  | 0.96 | 0.747 | 0.92 | 0.718 | 0.714 | 0.627 | 0.707 | 0.709 | 0.499
NCI-H1793 | 0.805 | 0.714 | 0.685 | 0.495 | 0.367 |  |  |  |  | 0.879 | 0.855 | 0.977 | 0.614 | 0.596 | 0.652 | 0.426 | 0.702 | 0.78
Calu-6 | 0.602 | 0.529 | 0.646 | 0.615 | 0.577 | 0.897 | 0.939 | 0.96 | 0.832 |  |  |  |  |  |  |  |  | 
NCI-H1944 | 0.41 | 0.431 | 0.427 | 0.341 | 0.337 |  |  |  |  | 0.596 | 0.695 | 0.677 | 0.5 | 0.502 | 0.538 |  | 0.515 | 0.671
SK-MES-1 | 0.616 | 0.556 | 0.786 | 0.622 | 0.544 |  |  |  |  | 0.954 | 0.955 | 1.07 | 0.868 | 0.689 | 1.06 |  | 1.01 | 0.949
NCI-H1648 | 0.887 | 0.758 | 1.13 | 0.4 | 0.331 |  |  |  |  | 0.661 | 0.743 | 0.894 | 0.559 | 0.482 |  | 0.315 | 0.546 | 0.706
NCI-H358 | 0.665 | 0.578 | 0.544 | 0.403 | 0.332 |  |  |  |  | 0.196 | 0.163 | 0.145 | 0.143 | 0.145 | 0.671 | 0.587 | 0.65 | 0.768
NCI-H727 | 0.816 | 0.708 | 0.768 | 0.754 | 0.448 | 0.927 | 0.812 | 1.35 | 0.54 |  |  |  |  |  | 1.01 | 0.978 | 1.27 | 1.41
SW 900 | 0.878 |  | 0.974 | 0.914 | 0.795 |  |  |  |  | 0.513 |  | 0.476 | 0.497 | 0.405 | 0.41 | 0.466 | 0.379 | 0.636

From the supplement of paper PMC10307832
